From patent US20230091225A1, “Bifunctional chimeric heterocyclic compounds for targeted degradation of androgen receptors and use thereof” (HINOVA PHARMACEUTICALS INC., priority 2019, published 2023)
Read-outs that look alike come from different tables or passages of the source.

Biological target: T1, androgen receptor (AR) (Homo sapiens, UniProt P10275)
T1 sequence (P10275 1-920): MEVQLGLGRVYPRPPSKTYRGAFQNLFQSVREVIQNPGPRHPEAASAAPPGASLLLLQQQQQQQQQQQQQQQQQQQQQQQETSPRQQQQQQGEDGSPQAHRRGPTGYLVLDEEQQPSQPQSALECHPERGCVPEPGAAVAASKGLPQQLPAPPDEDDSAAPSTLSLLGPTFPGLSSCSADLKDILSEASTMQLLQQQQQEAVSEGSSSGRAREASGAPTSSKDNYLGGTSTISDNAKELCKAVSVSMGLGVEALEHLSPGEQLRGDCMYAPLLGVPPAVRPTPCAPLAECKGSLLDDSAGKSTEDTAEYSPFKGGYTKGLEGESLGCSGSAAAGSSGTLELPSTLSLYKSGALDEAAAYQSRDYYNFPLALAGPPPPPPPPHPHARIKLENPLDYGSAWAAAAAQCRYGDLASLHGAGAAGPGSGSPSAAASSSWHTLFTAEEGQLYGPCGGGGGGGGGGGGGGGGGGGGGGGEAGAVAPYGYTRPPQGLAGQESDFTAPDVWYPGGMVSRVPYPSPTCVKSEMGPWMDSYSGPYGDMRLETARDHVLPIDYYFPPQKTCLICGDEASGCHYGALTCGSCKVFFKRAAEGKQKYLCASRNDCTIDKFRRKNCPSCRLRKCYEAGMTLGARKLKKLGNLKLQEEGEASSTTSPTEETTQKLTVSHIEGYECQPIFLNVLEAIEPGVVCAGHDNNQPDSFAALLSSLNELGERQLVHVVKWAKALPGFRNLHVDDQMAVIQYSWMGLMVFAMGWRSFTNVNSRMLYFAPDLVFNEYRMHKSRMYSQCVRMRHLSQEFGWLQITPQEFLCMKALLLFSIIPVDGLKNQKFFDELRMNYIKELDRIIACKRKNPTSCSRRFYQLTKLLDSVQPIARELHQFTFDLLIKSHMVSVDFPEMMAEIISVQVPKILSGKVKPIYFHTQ
Assay: Degradation of androgen receptor (AR) protein in VCaP cells by ELISA
Assay type: cell-based
Conditions: for Dmax: VCaP

[1] = AR degradation, VCaP cells, 16 h, ELISA, Table 3-2, read-out: DC50
[2] = AR degradation, VCaP cells, 16 h, ELISA, Table 3-2, read-out: Dmax (%)
[3] = AR degradation, VCaP cells, 16 h, ELISA, Table 3-1, read-out: DC50
[4] = AR degradation, VCaP cells, 16 h, ELISA, Table 3-1, read-out: Dmax (%)
[5] = AR degradation, VCaP cells, 16 h, ELISA, Table 3-1

Compound | Dmax [%] | DC50 [3] [nM] | Dmax [4] [%] | also measured
N#Cc1ccc(O[C@H]2CC[C@H](NC(=O)c3cnc(N4CCC(CN5CCC6(CC5)CN(c5cc7c(cc5F)C(=O)N(C5CCC(=O)NC5=O)C7)C6)CC4)nn3)CC2)cc1Cl (some centres unmarked) [Compound 417] |  |  |  | DC50 [1]: < 10 nM; Dmax [2]: > 80%
N#Cc1ccc(O[C@H]2CC[C@H](NC(=O)c3cnc(N4CCC(CN5CCC6(CC5)CN(c5ccc7c(c5)C(=O)N(C5CCC(=O)NC5=O)C7=O)C6)CC4)nn3)CC2)cc1Cl (some centres unmarked) [Compound 279, N-((1r,4r)-4-(3-chloro-4-cyanophenoxy)cyclohexyl)-3-(4-((2-(2-(2,6-dioxopiperidin-3-yl)-1,3-dioxoisoindolin-5-yl)-2,7-diazaspiro[3.5]nonane-7-yl)methyl)piperidin-1-yl)-1,2,4-triazine-6-formamide] | > 80 |  |  | DC50: < 10 nM
CC1(C)[C@H](Oc2ccc(C#N)c(Cl)c2)C(C)(C)[C@H]1N1Cc2nc(C#CC3CCC(N4CCC5(CN(c6ccc7c(c6)C(=O)N(C6CCC(=O)NC6=O)C7=O)C5)C4)CC3)ccc2C1=O (some centres unmarked) [Compound 372] |  | > 300 | < 40 | 
N#Cc1ccc(O[C@H]2CC[C@H](NC(=O)c3nnc(N4CCC(CN5CCC6(CC5)CN(c5ccc7c(c5)C(=O)N(C5CCC(=O)NC5=O)C7=O)C6)CC4)s3)CC2)cc1Cl (some centres unmarked) [Compound 243] | > 80 |  |  | DC50: < 10 nM
N#Cc1ccc(O[C@H]2CC[C@H](NC(=O)c3noc(N4CCC(CN5CCC6(CC5)CN(c5ccc7c(c5)C(=O)N(C5CCC(=O)NC5=O)C7=O)C6)CC4)n3)CC2)cc1Cl (some centres unmarked) [Compound 415] | > 80 |  |  | DC50: < 10 nM
C[C@H]1CN(C[C@@H]2[C@H]3CN(c4cc5c(cc4F)C(=O)N(C4CCC(=O)NC4=O)C5=O)C[C@@H]23)CCN1c1cnc(C(=O)N[C@H]2CC[C@H](Oc3ccc(C#N)c(Cl)c3)CC2)cn1 (some centres unmarked) [Compound 171] |  | 10 to 100 | > 80 | 
CC1(C)[C@H](Oc2ccc(C#N)c(Cl)c2)C(C)(C)[C@H]1N1Cc2nc(C#CC3CCC(N4CC5(CCN(c6cc7c(cc6F)C(=O)N(C6CCC(=O)NC6=O)C7=O)C5)C4)CC3)ccc2C1=O (some centres unmarked) [Compound 370] |  | 100 to 300 |  | Dmax (%) [5]: ++ (60%-40%)
CC1(C)[C@H](Oc2ccc(C#N)c(Cl)c2)C(C)(C)[C@H]1N1Cc2nc(C#C[C@H]3C[C@H](N4CCN(c5ccc6c(c5)C(=O)N(C5CCC(=O)NC5=O)C6=O)CC4)C3)cnc2C1=O (some centres unmarked) [Compound 390] |  |  |  | DC50 [1]: < 10 nM; Dmax [2]: 60 to 80%
N#Cc1ccc(O[C@H]2CC[C@H](NC(=O)c3ccc(N4CCC5(CCN(CC6CCN(c7cc8c(cc7F)C(=O)N(C7CCC(=O)NC7=O)C8=O)CC6)CC5)CC4)nn3)CC2)cc1Cl (some centres unmarked) [Compound 261] |  | < 10 | > 80 | 
N#Cc1ccc(O[C@H]2CC[C@H](NC(=O)c3cnc(N4CCC(CN5CCC6(CC5)CN(c5ccc7c(c5)C(=O)N(C5CCC(=O)NC5=O)C7=O)C6)CC4)cn3)CC2)cc1Cl (some centres unmarked) [Compound 241, N-((1r,4r)-4-(3-chloro-4-cyanophenoxy)cyclohexyl)-6-(4-((2-(2-(2-,2,6-dioxopiperidin-3-yl)-1,3-dioxoisoindolin-5-yl)-2,7-diazaspiro[3.5]nonan-7-yl)methyl)piperidin-1-yl)pyrazine-3-carboxamide] | > 80 |  |  | DC50: < 10 nM
N#Cc1ccc(O[C@H]2CC[C@H](NC(=O)c3ccn([C@H]4CC[C@H](CN5CCC6(CC5)CN(c5ccc7c(c5)C(=O)N(C5CCC(=O)NC5=O)C7=O)C6)CC4)n3)CC2)cc1Cl (stereo partly drawn) [Compound 416, N-((1r,4R)-4-(3-chloro-4-cyanophenoxy)cyclohexyl)-1-((1r,4R)-4-((2-(2-(2,6-dioxopiperidin-3-yl)-1,3-dioxoisoindolin-5-yl)-2,7-diazaspiro[3.5]nonan-7-yl)methyl)cyclohexyl)-1H-pyrazole-3-formamide] |  |  |  | DC50 [1]: < 10 nM; Dmax [2]: > 80%
N#Cc1ccc(O[C@H]2CC[C@H](NC(=O)c3ccc(N4CCC(CN5CCC6(CC5)CN(c5cc7c(cc5F)C(=O)N(C5CCC(=O)NC5=O)C7=O)C6)CC4)cc3)CC2)cc1Cl (some centres unmarked) [Compound 191, N-((1r,4r)-4-(3-chloro-4-cyanophenoxy)cyclohexyl)-4-(4-((2-(2-(2,6-dioxopiperidin-3-yl)-6-fluoro-1,3-dioxoisoindolin-5-yl)-2,7-diazaspiro[3.5]nonan-7-yl)methyl)piperidin-1-yl)benzamide] |  | < 10 | > 80 | 
N#Cc1ccc(O[C@H]2CC[C@H](NC(=O)c3cnc(N4CC5(CCN(CC6CCN(c7ccc8c(c7)C(=O)N(C7CCC(=O)NC7=O)C8=O)CC6)CC5)C4)cn3)CC2)cc1Cl (some centres unmarked) [Compound 283, N-((1r,4r)-4-(3-chloro-4-cyanophenoxy)cyclohexyl)-6-(7-((1-(2-(2,6-dioxopiperidin-3-yl)-1,3-dioxoisoindolin-5-yl)piperidine-4-yl)methyl)-2,7-diazaspiro[3.5]nonan-2-yl)pyrazine-3-formamide] |  | < 10 | > 80 | 
CC1(C)[C@H](Oc2ccc(C#N)c(Cl)c2)C(C)(C)[C@H]1N1Cc2nc(C#C[C@H]3C[C@H](N4CCN(c5ccc6c(c5)C(=O)N(C5CCC(=O)NC5=O)C6=O)CC4)C3)ccc2C1=O (some centres unmarked) [Compound 355] |  | < 10 | > 80 | 
CC1(C)[C@H](Oc2ccc(C#N)c(Cl)c2)C(C)(C)[C@H]1N1Cc2nc(C#CC3CCC(N4CC5(CCN(c6ccc7c(c6)C(=O)N(C6CCC(=O)NC6=O)C7=O)CC5)C4)CC3)ccc2C1=O (some centres unmarked) [Compound 377, 2-Chloro-4-((1r,3r)-3-(2-((4-(7-(2-(2,6-dioxopiperidin-3-yl)-1,3-dioxoisoindolin-5-yl)-2,7-diazaspiro[3.5]nonan-2-yl)cyclohexyl)ethynyl)-5-oxo-5,7-dihydro-pyrrolo[3,4-b]pyridin-6-yl)-2,2,4,4-tetramethylcyclobutoxy) benzonitrile] |  | < 10 |  | Dmax (%) [5]: ++++ (>80%)
CC1(C)[C@H](Oc2ccc(C#N)c(Cl)c2)C(C)(C)[C@H]1N1Cc2nc(C#CC3CCC(N4CCC5(CCN(c6ccc7c(c6)C(=O)N(C6CCC(=O)NC6=O)C7=O)C5)C4)CC3)ccc2C1=O (some centres unmarked) [Compound 365, 2-Chloro-4-((1r,3r)-3-(2-((4-(7-(2-(2,6-dioxopiperidin-3-yl)-1,3-dioxoisoindolin-5-yl)-2,7-Diazaspiro[4.4]nonan-2-yl)cyclohexyl)ethynyl)-5-oxo-5,7-dihydro-6H-pyrrolo[3,4-b]pyridin-6-yl)-2,2,4,4-tetramethylcyclobutoxy) benzonitrile] |  | 10 to 100 |  | Dmax (%) [5]: ++++ (>80%)
N#Cc1ccc(O[C@H]2CC[C@H](NC(=O)c3ccc(N4CC5(CCN(C6CCN(c7cc8c(cc7F)C(=O)N(C7CCC(=O)NC7=O)C8=O)CC6)C5)C4)nn3)CC2)cc1Cl (some centres unmarked) [Compound 81, N-((1r,4r)-4-(3-chloro-4-cyanophenoxy)cyclohexyl)-6-(6-(1-(2-(2,6-dioxopiperidin-3-yl)-6-fluoro-1,3-dioxoisoindolin-5-yl)piperidine-4-yl)-2,6-diazaspiro[3.4]octan-2-yl)pyridazine-3-formamide] | > 80 | < 10 |  | 
[2H]C([2H])([2H])Oc1cc(O[C@H]2CC[C@H](NC(=O)c3ccc(N4CCC(CN5CCC6(CC5)CN(c5ccc7c(c5)C(=O)N(C5CCC(=O)NC5=O)C7=O)C6)CC4)nn3)CC2)ccc1C#N (some centres unmarked) [Compound 153] | > 80 |  |  | DC50: < 10 nM
CC1(C)[C@H](Oc2ccc(C#N)c(Cl)c2)C(C)(C)[C@H]1N1Cc2nc(C#CC3CCC(N4CC5(CCN(c6cc7c(cc6F)C(=O)N(C6CCC(=O)NC6=O)C7=O)C5)C4)CC3)ccc2C1=O (some centres unmarked) [Compound 371] |  | 10 to 100 |  | Dmax (%) [5]: ++++ (>80%)
